Results published in article PMC4534193, “Binding of the Lactococcal Drug Dependent Transcriptional Regulator LmrR to Its Ligands and Responsive Promoter Regions” (PLoS ONE, 2015).

Biological target: T1, LmrR (Lactococcus cremoris, UniProt A2RI36)
T1 construct: gene llmg_0323; LmrR homodimer; untagged protein for the crystal (residues 1–5, 70–75 and 109–116 not modelled)
T1 sequence (A2RI36 1-116): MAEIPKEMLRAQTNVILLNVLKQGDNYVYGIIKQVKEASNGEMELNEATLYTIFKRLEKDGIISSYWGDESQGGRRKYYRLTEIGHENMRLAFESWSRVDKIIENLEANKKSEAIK
Assay: co-crystal structure ([…] Å) and riboflavin fluorescence quenching titration
Assay type: binding

Cc1cc2nc3c(=O)[nH]c(=O)nc-3n(C[C@H](O)[C@H](O)[C@H](O)CO)c2cc1C [RBF, riboflavin]
Kd: 260 ± 80 nM
